Patent publication US10202368B2, “CXCR7 receptor modulators” (IDORSIA PHARMACEUTICALS LTD, priority 2014, dated 2019)
pEC50: −log10 of the molar value.

biological target: CXCR7 (Homo sapiens (Human), UniProt P25106); assay: PathHunter CHO-K1 CXCR7 β-arrestin assay (agonistic activity); assay type: cell-based; conditions: β-arrestin recruitment in PathHunter CHO-K1 CXCR7 β-arrestin cells, 90 minutes at 37° C., geometric mean values
Protocol: The CXCI12 receptor and CXCR7 agonistic activities of the compounds of formula (I) are determined in accordance with the following experimental method.
The assay is using the PathHunter™ CHO-K1 CXCR7 β-arrestin cell line from DiscoverX. The system is based on the Enzyme Fragment Complementation Technology. Two complementing fragments of the β-galactosidase enzyme are expressed within stably transfected cells. The larger portion of β-gal, termed EA for Enzyme Acceptor, is fused to the C-terminus of b-arrestin 2. The smaller fragment, termed ProLink™ tag, is fused to CXCR7 at the C-terminus. Upon activation, b-arrestin is recruited which forces the interaction of ProLink and EA, allowing complementation of the two fragments of b-gal and the formation of a functional enzyme which is capable of hydrolysing the substrate and generating a chemiluminescent signal.
CHO-K1 CXCR7 β-arrestin cells are detached from culture dishes with a cell dissociation buffer (Invitrogen, #13151-014) and collected in growing medium (F12 HAMS 90% (v/v)/FCS 10% (v/v), Penicillin/streptomycin 1% (v/v)). 5000 cells per well (in 20 μl) are seeded in a 384 well plate (white-walled, clear bottom; BD Falcon #353274). The plate is incubated at 37° C./5% CO2 for 24 hours. Medium is then replaced by 20 μl OPTIMEM (Invitrogen #31985) for 3 to 4 hours. Test compounds are dissolved at 10 mM in DMSO and serially diluted in DMSO to 200× of the final concentration for dose response curves. Compounds are then diluted 1:33.3 in HBSS1X. 5 μl/well of HBSS1X/20 mM HEPES/0.2% BSA are added to the assay plate followed by addition of 5 μl/well of diluted compounds. CXCL12 (Peprotech #300-28A) may be used as a reference agonist. The plate is incubated for 90 minutes at 37° C. 12 μl of detection reagent (Path Hunter Detection Kit, DiscoveRx, #93-0001) is transferred to the assay plate and to the plate is incubated for 1 hour at room temperature. Luminescent signal is read in a microplate reader (FLUOstar Optima, bmg). The calculated EC50 values may fluctuate depending on the daily cellular assay performance. Fluctuations of this kind are known to those skilled in the art. Average EC50 values from several measurements are given as geometric mean values.

Sequence of CXCR7 (P25106 whole entry): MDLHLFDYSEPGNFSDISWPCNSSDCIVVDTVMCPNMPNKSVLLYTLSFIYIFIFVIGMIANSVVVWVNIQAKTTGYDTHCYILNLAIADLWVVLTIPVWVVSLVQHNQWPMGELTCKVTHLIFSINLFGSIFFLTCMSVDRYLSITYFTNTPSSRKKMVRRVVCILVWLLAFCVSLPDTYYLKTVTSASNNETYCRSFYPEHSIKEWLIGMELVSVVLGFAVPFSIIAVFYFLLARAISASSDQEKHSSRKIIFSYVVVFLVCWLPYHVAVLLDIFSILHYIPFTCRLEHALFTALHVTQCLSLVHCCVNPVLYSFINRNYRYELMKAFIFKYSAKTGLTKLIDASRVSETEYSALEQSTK
Sequence of CXCR7 (P32121 whole entry partner): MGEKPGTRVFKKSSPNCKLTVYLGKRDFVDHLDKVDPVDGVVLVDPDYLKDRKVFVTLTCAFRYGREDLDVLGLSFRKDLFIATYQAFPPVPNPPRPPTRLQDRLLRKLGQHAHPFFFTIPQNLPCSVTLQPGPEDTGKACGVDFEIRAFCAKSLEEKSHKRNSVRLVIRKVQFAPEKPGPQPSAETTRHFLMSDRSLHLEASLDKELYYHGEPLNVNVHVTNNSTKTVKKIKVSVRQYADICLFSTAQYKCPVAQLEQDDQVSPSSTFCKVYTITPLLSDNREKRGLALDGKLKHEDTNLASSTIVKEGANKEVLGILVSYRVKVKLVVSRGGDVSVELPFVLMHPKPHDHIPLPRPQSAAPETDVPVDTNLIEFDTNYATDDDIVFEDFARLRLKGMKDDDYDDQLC

Going from `CC(C)N(CCN(Cc1ccccc1C(F)(F)F)C(=O)CNc1cccc2c1N(C)CCN(CC1CC1)C2)C(=O)OC(C)(C)C` [Example 50, {2-[[2-(4-Cyclopropylmethyl-1-methyl-2,3,4,5-tetrahydro-1H-benzo[e][1,4]diazepin-9-ylamino)-acetyl]-(2-trifluoromethyl-benzyl)-amino]-ethyl}-isopropyl-carbamic acid tert-butyl ester] to `CC(C)NCCN(Cc1ccccc1C(F)(F)F)C(=O)CNc1cccc2c1N(C)CCN(CC1CC1)C2` [Example 52, 2-(4-Cyclopropylmethyl-1-methyl-2,3,4,5-tetrahydro-1H-benzo[e][1,4]diazepin-9-ylamino)-N-(2-isopropylamino-ethyl)-N-(2-trifluoromethyl-benzyl)-acetamide], the pEC50 rises from 6.47 to 9.00 (2.53 log units). The second is the more potent here.

Compared with `CN1CCN(CC2CC2)Cc2cccc(NCC(=O)N(CCN3CCCC3)Cc3ncccc3C(F)(F)F)c21` [Example 51, 2-(4-Cyclopropylmethyl-1-methyl-2,3,4,5-tetrahydro-1H-benzo[e][1,4]diazepin-9-ylamino)-N-(2-pyrrolidin-1-yl-ethyl)-N-(3-trifluoromethyl-pyridin-2-ylmethyl)-acetamide], `O=C(CNc1cccc2c1OCC(=O)N(CC1CC1)C2)N(CCN1CCCC1)Cc1ncccc1C(F)(F)F` [Example 65, 2-(4-cyclopropylmethyl-3-oxo-2,3,4,5-tetrahydro-benzo[f][1,4]oxazepin-9-ylamino)-N-(2-pyrrolidin-1-yl-ethyl)-N-(3-trifluoromethyl-pyridin-2-ylmethyl)-acetamide] is 1.26 log units lower in pEC50: 9.00 for the first, 7.74 for the second. The first is the more potent here.

Going from `CCN1CCOc2c(NCC(=O)N(CCNC(C)C)Cc3ccccc3C(F)(F)F)cccc2C1=O` [Example 56, 2-(4-Ethyl-5-oxo-2,3,4,5-tetrahydro-benzo[f][1,4]oxazepin-9-ylamino)-N-(2-isopropylamino-ethyl)-N-(2-trifluoromethyl-benzyl)-acetamide] to `CC(C)NCCN(Cc1ccccc1C(F)(F)F)C(=O)CNc1cccc2c1OCCN(CC1CC1)C2=O` [Example 62, 2-(4-Cyclopropylmethyl-5-oxo-2,3,4,5-tetrahydro-benzo[f][1,4]oxazepin-9-ylamino)-N-(2-isopropylamino-ethyl)-N-(2-trifluoromethyl-benzyl)-acetamide], the pEC50 rises from 7.80 to 8.30 (0.50 log units).

Compared with `CCN1CCOc2c(NCC(=O)N(CCN3CCCC3)Cc3ncccc3C(F)(F)F)cccc2C1=O` [Example 57, 2-(4-Ethyl-5-oxo-2,3,4,5-tetrahydro-benzo[f][1,4]oxazepin-9-ylamino)-N-(2-pyrrolidin-1-yl-ethyl)-N-(3-trifluoromethyl-pyridin-2-ylmethyl)-acetamide], `O=C(CNc1cccc2c1OCCN(CC1CC1)C2=O)N(CCN1CCCC1)Cc1ncccc1C(F)(F)F` [Example 64, 2-(4-Cyclopropylmethyl-5-oxo-2,3,4,5-tetrahydro-benzo[f][1,4]oxazepin-9-ylamino)-N-(2-pyrrolidin-1-yl-ethyl)-N-(3-trifluoromethyl-pyridin-2-ylmethyl)-acetamide] is 0.93 log units higher in pEC50: 7.22 for the first, 8.15 for the second.

First: CCN1CCOc2c(NCC(=O)N(CCN(C)C)Cc3ncccc3C(F)(F)F)cccc2C1=O [Example 58, N-(2-Dimethylamino-ethyl)-2-(4-ethyl-5-oxo-2,3,4,5-tetrahydro-benzo[f][1,4]oxazepin-9-ylamino)-N-(3-trifluoromethyl-pyridin-2-ylmethyl)-acetamide]
Second: CCN1CCOc2c(NCC(=O)N(CCN(C)C)Cc3ncccc3Cl)cccc2C1=O [Example 60, N-(3-Chloro-pyridin-2-ylmethyl)-N-(2-dimethylamino-ethyl)-2-(4-ethyl-5-oxo-2,3,4,5-tetrahydro-benzo[f][1,4]oxazepin-9-ylamino)-acetamide]
The pEC50 of the first is 0.54 log units higher: 7.13 for the first, 6.59 for the second.

Going from `CCN1CCOc2c(NCC(=O)N(CCN3CCCC3)Cc3ncccc3Cl)cccc2C1=O` [Example 59, N-(3-Chloro-pyridin-2-ylmethyl)-2-(4-ethyl-5-oxo-2,3,4,5-tetrahydro-benzo[f][1,4]oxazepin-9-ylamino)-N-(2-pyrrolidin-1-yl-ethyl)-acetamide] to `CCN1CCOc2c(cccc2NCC(=O)N(CCN2CCCC2)Cc2ncccc2Cl)C1` [Example 75, N-(3-Chloro-pyridin-2-ylmethyl)-2-(4-ethyl-2,3,4,5-tetrahydro-benzo[f][1,4]oxazepin-9-ylamino)-N-(2-pyrrolidin-1-yl-ethyl)-acetamide], the pEC50 rises from 6.59 to 7.72 (1.13 log units). The second is the more potent here.

First: CN(C)CCN(Cc1ccccc1C(F)(F)F)C(=O)CNc1cccc2c1OCCN(CC1CC1)C2=O [Example 61, 2-(4-Cyclopropylmethyl-5-oxo-2,3,4,5-tetrahydro-benzo[f][1,4]oxazepin-9-ylamino)-N-(2-dimethylamino-ethyl)-N-(2-trifluoromethyl-benzyl)-acetamide]
Second: CC(C)(C)NCCN(Cc1ccccc1C(F)(F)F)C(=O)CNc1cccc2c1OCCN(CC1CC1)C2=O [Example 63, N-(2-tert-Butylamino-ethyl)-2-(4-cyclopropylmethyl-5-oxo-2,3,4,5-tetrahydro-benzo[f][1,4]oxazepin-9-ylamino)-N-(2-trifluoromethyl-benzyl)-acetamide]
The pEC50 of the first is 0.65 log units lower: 8.05 for the first, 8.70 for the second.

`CC(C)(C)NCCN(Cc1ccccc1C(F)(F)F)C(=O)CNc1cccc2c1OCC(=O)N(CC1CC1)C2` [Example 66, N-(2-tert-butylamino-ethyl)-2-(4-cyclopropylmethyl-3-oxo-2,3,4,5-tetrahydro-benzo[f][1,4]oxazepin-9-ylamino)-N-(2-trifluoromethyl-benzyl)-acetamide] and `CC(C)NCCN(Cc1ccccc1C(F)(F)F)C(=O)CNc1cccc2c1OCC(=O)N(CC1CC1)C2` [Example 68, 2-(4-Cyclopropylmethyl-3-oxo-2,3,4,5-tetrahydro-benzo[f][1,4]oxazepin-9-ylamino)-N-(2-isopropylamino-ethyl)-N-(2-trifluoromethyl-benzyl)-acetamide] are within 0.2 log units of each other in pEC50: 7.74 for the first, 7.82 for the second.

First: CN(C)CCN(Cc1ccccc1C(F)(F)F)C(=O)CNc1cccc2c1OCC(=O)N(CC1CC1)C2 [Example 67, 2-(4-Cyclopropylmethyl-3-oxo-2,3,4,5-tetrahydro-benzo[f][1,4]oxazepin-9-ylamino)-N-(2-dimethylamino-ethyl)-N-(2-trifluoromethyl-benzyl)-acetamide]
Second: CCN1CCOc2c(cccc2NCC(=O)N(CCN(C)C)Cc2ncccc2C(F)(F)F)C1 [Example 72, N-(2-Dimethylamino-ethyl)-2-(4-ethyl-2,3,4,5-tetrahydro-benzo[f][1,4]oxazepin-9-ylamino)-N-(3-trifluoromethyl-pyridin-2-ylmethyl)-acetamide]
The pEC50 of the first is 0.79 log units lower: 7.43 for the first, 8.22 for the second. The second is the more potent here.

First: CCN1CCOc2c(cccc2NCC(=O)N(CCN(C(=O)OC(C)(C)C)C(C)C)Cc2ccccc2C(F)(F)F)C1 [Example 69, {2-[[2-(4-Ethyl-2,3,4,5-tetrahydro-benzo[f][1,4]oxazepin-9-ylamino)-acetyl]-(2-trifluoromethyl-benzyl)-amino]-ethyl}-isopropyl-carbamic acid tert-butyl ester]
Second: CCN1CCOc2c(cccc2NCC(=O)N(CCNC(C)(C)C)Cc2ccccc2C(F)(F)F)C1 [Example 70, N-(2-tert-Butylamino-ethyl)-2-(4-ethyl-2,3,4,5-tetrahydro-benzo[f][1,4]oxazepin-9-ylamino)-N-(2-trifluoromethyl-benzyl)-acetamide]
The pEC50 of the first is 2.03 log units lower: 6.37 for the first, 8.40 for the second. The second is the more potent here.

`CCN1CCOc2c(cccc2NCC(=O)N(CCNC(C)C)Cc2ccccc2C(F)(F)F)C1` [Example 71, 2-(4-Ethyl-2,3,4,5-tetrahydro-benzo[f][1,4]oxazepin-9-ylamino)-N-(2-isopropylamino-ethyl)-N-(2-trifluoromethyl-benzyl)-acetamide] and `CCN1CCOc2c(cccc2NCC(=O)N(CCN2CCCC2)Cc2ncccc2C(F)(F)F)C1` [Example 74, 2-(4-Ethyl-2,3,4,5-tetrahydro-benzo[f][1,4]oxazepin-9-ylamino)-N-(2-pyrrolidin-1-yl-ethyl)-N-(3-trifluoromethyl-pyridin-2-ylmethyl)-acetamide] are within 0.2 log units of each other in pEC50: 8.40 for the first, 8.30 for the second.

Compared with `CCN1CCOc2c(cccc2NCC(=O)N(CCN(C)C)Cc2ncccc2C)C1` [Example 73, N-(2-Dimethylamino-ethyl)-2-(4-ethyl-2,3,4,5-tetrahydro-benzo[f][1,4]oxazepin-9-ylamino)-N-(3-methyl-pyridin-2-ylmethyl)-acetamide], `CCN1CCOc2c(cccc2NCC(=O)N(CCN(C)C)Cc2cnc(C(F)(F)F)s2)C1` [Example 76, N-(2-Dimethylamino-ethyl)-2-(4-ethyl-2,3,4,5-tetrahydro-benzo[f][1,4]oxazepin-9-ylamino)-N-(2-trifluoromethyl-thiazol-5-ylmethyl)-acetamide] is 0.86 log units lower in pEC50: 7.23 for the first, 6.37 for the second.
